Measurements as given in US20260060947A1 (INSTITUT PASTEUR DE MONTEVIDEO, priority 2019, published 2026).
Where “and” joins values, the source holds several entries; their conditions need not be identical. Identical values can stand only once. Entries after “also recorded” stand apart in the source; their conditions may differ.

Assays:
[1] = test system: NF-κB-p65; assay: LPS-induced NF-κB-p65 nuclear translocation in BV2 cells (immunocytochemistry); format: cell-based, murine; settings: BANA 10, 20, 30 μM, BA 30 μM or DMF for 3 hrs before LPS 100 ng/ml
Protocol: The effect of BANA on nuclear translocation of NF-κB was studied by immunocytochemistry using murine microglia cell line BV2.
Cells were then treated with BANA (10, 20 and 30 μM) or B.A (30 μM) for 3 hrs. After treatment, cells were stimulated with LPS (100 ng/ml) for 30 minutes. Then, cells were washed and fixed with PFA 4% for 20 minutes at 4° C. and washed with PBS. Immunocytochemistry was performed as follows: cells were permeabilized using 0.5% Triton in PBS for 15 minutes, and then blocked using 5% of BSA for 1 h at room temperature. Rabbit anti-NF-κB-p65 (ab16502, 1/200) and mouse anti-CD11b (BD550219, 1/100) were incubated overnight at 4° C. After that, primary antibodies were removed, washed with PBS 3 times for 10 minutes, and Alexa-fluor-conjugated goat anti-rabbit or goat anti-mouse antibodies (1:1000) were incubated for 2 h at room temperature. After secondary antibodies were removed, cells were covered in glycerol mounting medium with 1/2000 DAPI staining. Cells were analyzed by confocal microscopy using a confocal ZEISS LSM 800. NF-κB-p65+ nuclei were counted and ratio of DAPI to NF-κB-p65 labeling was compared among groups. Data were analyzed using analyzing tools of ImageJ and GraphPad Prism 7 software.

[2] = test system: NLRP3 inflammasome; assay: Inflammasome activation in THP-1 cells (LPS and ATP), IL-1β ELISA; format: cell-based, Human; settings: 30 μM, in first or second signal (LPS and ATP), compared with vehicle
Protocol: The effect of BANA or BA over NF-κB-dependent gene expression was studied by qPCR using THP-1 cells. THP-1 cells were differentiated into macrophages and treated with BANA (30 μM) or BA (30 μM) for 2 hs, followed by stimulation with LPS (100 ng/mL, for 3-4 h).
For inflammasome activation, THP-1 cells were treated with LPS (as above) followed by exposure to ATP (5 mM, 45 min). IL-1β in the supernatant was then measured by ELISA (B&D OptEIA TM, San Diego, CA, USA).

[3] = test system: NF-κB-p65; assay: Nuclear NF-κB-p65 in perineuronal microglia of the spinal cord; format: in vivo, rat; settings: post-paralysis treatment for 15 days, 100 mg/kg/day
Protocol: FIG. 9A: Scheme of the experimental design. SOD1^G93A female rats were treated with 100 mg/kg/day of BANA or vehicle immediately after the first signs of paralysis onset of one hindlimb and continue for 15 days. Immunohistological analysis of the lumbar spinal cord of non-transgenic and vehicle- and BANA-treated SOD1^G93A symptomatic rats were performed.
FIG. 9C: Confocal images show NF-κB-p65 (green) and DAPI (red) expression in the ventral horn of the spinal cord of non-transgenic and symptomatic SOD1^G93A rats, treated with vehicle or BANA, in the surroundings of motor neurons (white dotted lines). Nuclei stained in yellow denote nuclear NF-κB-p65 and DAPI colocalization (white arrows). […] Data are expressed as mean±SEM; data were analyzed by the Kruskal-Wallis test followed by Dunn's multiple comparisons test, **p=0.0018, ***p=0.0003. n=4 animals per condition. Scale bar=20 μm.
At least 4 rats were analyzed for each immunohistochemistry experiment. Three different conditions were studied as follows: 1) non-transgenic (NonTg) rats of 160-180 days; 2) transgenic SOD1^G93A rats of 195-210 days treated with vehicle (paralysis, 15 d-vehicle) and 3) transgenic SOD1^G93A rats of 195-210 days treated with 50 or 100 mg/kg/day of BANA during 15 days. After treatment animals were deeply anesthetized and transcardial perfusion was performed with paraformaldehyde 4% (v/v) in PBS pH=7.4. […]

[4] = test system: inflammasome; assay: LPS/ATP-induced inflammasome activation in BV2 cells (western blot of IL-1β); format: cell-based, murine; settings: treatment in second signal (ATP), compared to vehicle or sodium benzoate
Protocol: FIG. 3B: For inflammasome activation, BV2 cells were treated with LPS and ATP. BANA or B.A treatment was performed in second signal (ATP). Presence of pro-IL1β in cell lysates (CL) and cleaved IL-1β in supernatants (SN) was determined by western blot analysis. […] All data are expressed as mean±SEM.

[5] = BANA plasma levels by RP-HPLC after oral administration; format: in vivo, SOD1^G93A rats
Protocol: Only female transgenic rats showing weakness and gait alterations in the […] as the first clinical sign were selected for BANA treatment studies. Rats were divided randomly into BANA or vehicle-treated groups. BANA was freshly prepared in buffer phosphate (PB), and administrated daily at a dose of 100 mg/kg using a curved stainless steel gavage needle with 3-mm ball tip. Rats were treated from day-1 post-paralysis for 15 days or until end-stage when they were euthanized.
For the detection of BANA in plasma, experiments were performed using RP-HPLC analysis (Agilent 1200 HPLC system). Rats were sacrificed and plasma samples were obtained. 100 μL of plasma was incubated with HgCl2 (20 mM) at 37° C. for 30 minutes and after that extracted with 900 μL of acetonitrile (ACN) and injected into HPLC in a 20-40% gradient of B in 10 minutes. BANA plasma concentration was calculated from a standard curve using Salicylate as an internal standard. (CPAK C-18, […], 150 mm×3.9 mm I.D. column; A phase: H2O 0.1% Formic acid; B phase: ACN 0.1% Formic acid; detection at 300 nm)
Rates were dosed with 100 mg/kg/day of BANA administered orally.

SMILES: O=C(O)c1ccc(/C=C/[N+](=O)[O-])cc1 [BANA, (E)-4-(2-nitrovinyl) benzoic acid]
- LPS-induced NF-κB-p65 nuclear translocation [1]: potently prevented; also recorded: inhibits
- release of IL-1β [2]: almost completely prevented
- perineuronal microglia bearing NF-κB-p65-positive nuclei [3]: significant reduction
- LPS/ATP-induced inflammasome activation (release of IL-1β adjusted to pro-IL-1β) [4]: inhibited
- [BANA] in plasma, sample + HgCl2 ([5]; SOD1^G93A symptomatic rats, 15 days oral daily 100 mg/kg, plasma incubated with HgCl2 (20 mM, 37° C., 30 min), 100 mg/kg): 3.69 μm and 3.45 μm and 3.58 μm
- concentration at 15 days ([5]; female, SOD1^G93A transgenic, rat, plasma, po, 100 mg/kg, SOD1^G93A symptomatic rats, 15 days oral daily 100 mg/kg, plasma incubated with HgCl2 (20 mM, 37° C., 30 min), read-out: [BANA] in plasma, sample + HgCl2): 3.29 µM
- BANA plasma levels reached ([5]; rats, 100 mg/kg/day orally, HPLC): 3.49 µM
- fraction of plasma BANA covalently linked to proteins ([5]; rats, oral 100 mg/kg/day for 5 days): more than 90%
- plasma concentration after oral administration (in words) ([5]; rats, oral administration): low micromolar concentration
